The source made the active and inactive calls. The calls are words filed in the database; no cut-off is given here.
Columns and labels:
Assay type in all cases: functional
Proteus [1] = test: Antibacterial activity against Proteus OX2 Wrah at 0.25 ug/ml after 24 hr by agar well diffusion method
Escherichia coli [2] = test: Antibacterial activity against Escherichia coli ATCC 1280 at 0.25 ug/ml after 24 hr by agar well diffusion method; conditions: ATCC 1280, 24 h, read-out: DIZ
Brucella abortus = test: Antibacterial activity against Brucella abortus RSKK-03026 at 0.25 ug/ml after 24 hr by agar well diffusion method
Candida albicans = test: Antifungal activity against Candida albicans Y-1200-NIH at 0.25 ug/ml after 24 hr by agar well diffusion method; conditions: for zone of inhibition at 0.25 µg/mL: read-out: DIZ
Salmonella typhimurium [3] = test: Antibacterial activity against Salmonella enterica subsp. enterica serovar Typhi H NCTC 901.8394 at 0.25 ug/ml after 24 hr by agar well diffusion method; conditions: H NCTC 901.8394, 24 h, read-out: DIZ
Shigella boydii [4] = test: Antibacterial activity against Shigella boydii type 6 RSKK-96043 at 0.25 ug/ml after 24 hr by agar well diffusion method; conditions: type 6 RSKK-96043, 24 h, read-out: DIZ
Pseudomonas putida [5] = test: Antibacterial activity against Pseudomonas putida at 0.25 ug/ml after 24 hr by agar well diffusion method; conditions: for zone of inhibition at 0.25 µg/mL: read-out: DIZ
Shigella boydii [6] = test: Antibacterial activity against Shigella boydii type 16 at 0.25 ug/ml after 24 hr by agar well diffusion method; conditions: type 16, 24 h, read-out: DIZ
Shigella boydii [7] = test: Antibacterial activity against Shigella boydii type 11 at 0.25 ug/ml after 24 hr by agar well diffusion method; conditions: type 11, 24 h, read-out: DIZ
Listeria monocytogenes [8] = test: Antibacterial activity against Listeria monocytogenes ATCC 19115 at 0.25 ug/ml after 24 hr by agar well diffusion method; conditions: for zone of inhibition at 0.25 µg/mL: ATCC 19115, 24 h, read-out: DIZ
Staphylococcus aureus [9] = test: Antibacterial activity against Staphylococcus aureus ATCC 25923 at 0.25 ug/ml after 24 hr by agar well diffusion method; conditions: ATCC 25923, 24 h, read-out: DIZ
Pseudomonas putida [10] = test: Antibacterial activity against Pseudomonas putida at 30 ug after 24 hr by agar well diffusion method; conditions: read-out: DIZ
Escherichia coli [11] = test: Antibacterial activity against Escherichia coli ATCC 1280 at 30 ug after 24 hr by agar well diffusion method; conditions: ATCC 1280, 24 h, read-out: DIZ
Proteus [12] = test: Antibacterial activity against Proteus OX2 Wrah at 30 ug after 24 hr by agar well diffusion method; conditions: read-out: DIZ
Shigella boydii [13] = test: Antibacterial activity against Shigella boydii type 6 RSKK-96043 at 30 ug after 24 hr by agar well diffusion method; conditions: type 6 RSKK-96043, 24 h, read-out: DIZ
Listeria monocytogenes [14] = test: Antibacterial activity against Listeria monocytogenes ATCC 19115 at 30 ug after 24 hr by agar well diffusion method; conditions: ATCC 19115, 24 h, read-out: DIZ
Shigella boydii [15] = test: Antibacterial activity against Shigella boydii type 11 at 30 ug after 24 hr by agar well diffusion method; conditions: type 11, 24 h, read-out: DIZ
Shigella boydii [16] = test: Antibacterial activity against Shigella boydii type 16 at 30 ug after 24 hr by agar well diffusion method; conditions: type 16, 24 h, read-out: DIZ
Staphylococcus aureus [17] = test: Antibacterial activity against Staphylococcus aureus ATCC 25923 at 30 ug after 24 hr by agar well diffusion method; conditions: ATCC 25923, 24 h, read-out: DIZ
Salmonella typhimurium [18] = test: Antibacterial activity against Salmonella enterica subsp. enterica serovar Typhi H NCTC 901.8394 at 30 ug after 24 hr by agar well diffusion method; conditions: H NCTC 901.8394, 24 h, read-out: DIZ

Structure (SMILES): CCOC(=O)c1c(/N=C/c2c(O)ccc3ccccc23)sc2c1CCC2
- zone of inhibition at 0.25 µg/mL (Proteus [1]; read-out: DIZ): 5 mm
- zone of inhibition at 0.25 µg/mL (Escherichia coli [2]): 6 mm
- diameter of the inhibition zone (DIZ) (Brucella abortus): inactive
- zone of inhibition at 0.25 µg/mL (Candida albicans): 14 mm
- zone of inhibition at 0.25 µg/mL (Salmonella typhimurium [3]): 6 mm
- zone of inhibition at 0.25 µg/mL (Shigella boydii [4]): 6 mm
- zone of inhibition at 0.25 µg/mL (Pseudomonas putida [5]): 8 mm
- zone of inhibition at 0.25 µg/mL (Shigella boydii [6]): 7 mm
- zone of inhibition at 0.25 µg/mL (Shigella boydii [7]): 8 mm
- zone of inhibition at 0.25 µg/mL (Listeria monocytogenes [8]): 7 mm
- zone of inhibition at 0.25 µg/mL (Staphylococcus aureus [9]): 14 mm

Structure (SMILES): CCOC(=O)c1c(/N=C/c2c(O)ccc3ccccc23)sc2c1CCCC2
- diameter of the inhibition zone (DIZ) (Proteus [1]): inactive
- zone of inhibition at 0.25 µg/mL (Escherichia coli [2]): 6 mm
- diameter of the inhibition zone (DIZ) (Brucella abortus): inactive
- diameter of the inhibition zone (DIZ) (Candida albicans): inactive
- zone of inhibition at 0.25 µg/mL (Salmonella typhimurium [3]): 7 mm
- zone of inhibition at 0.25 µg/mL (Shigella boydii [4]): 7 mm
- zone of inhibition at 0.25 µg/mL (Pseudomonas putida [5]): 7 mm
- zone of inhibition at 0.25 µg/mL (Shigella boydii [6]): 8 mm
- zone of inhibition at 0.25 µg/mL (Shigella boydii [7]): 7 mm
- zone of inhibition at 0.25 µg/mL (Listeria monocytogenes [8]): 9 mm
- zone of inhibition at 0.25 µg/mL (Staphylococcus aureus [9]): 9 mm

Structure (SMILES): CCOC(=O)c1c(/N=C/c2c(O)ccc3ccccc23)sc2c1CCCCC2
- diameter of the inhibition zone (DIZ) (Proteus [1]): inactive
- zone of inhibition at 0.25 µg/mL (Escherichia coli [2]): 9 mm
- zone of inhibition at 0.25 µg/mL (Brucella abortus; RSKK-03026, 24 h, read-out: DIZ): 5 mm
- zone of inhibition at 0.25 µg/mL (Candida albicans): 11 mm
- zone of inhibition at 0.25 µg/mL (Salmonella typhimurium [3]): 8 mm
- zone of inhibition at 0.25 µg/mL (Shigella boydii [4]): 7 mm
- diameter of the inhibition zone (DIZ) (Pseudomonas putida [5]): inactive
- zone of inhibition at 0.25 µg/mL (Shigella boydii [6]): 8 mm
- zone of inhibition at 0.25 µg/mL (Shigella boydii [7]): 8 mm
- diameter of the inhibition zone (DIZ) (Listeria monocytogenes [8]): inactive
- zone of inhibition at 0.25 µg/mL (Staphylococcus aureus [9]): 9 mm

Structure (SMILES): CC1(C)S[C@@H]2[C@H](NC(=O)[C@H](N)c3ccc(O)cc3)C(=O)N2[C@H]1C(=O)O [AMOXICILLIN]
- zone of inhibition at 30 µg/disc (Pseudomonas putida [10]): 15 mm
- zone of inhibition at 30 µg/disc (Escherichia coli [11]): 14 mm
- zone of inhibition at 30 µg/disc (Proteus [12]): 17 mm
- zone of inhibition at 30 µg/disc (Shigella boydii [13]): 19 mm
- zone of inhibition at 30 µg/disc (Listeria monocytogenes [14]): 22 mm
- zone of inhibition at 30 µg/disc (Shigella boydii [15]): 24 mm
- zone of inhibition at 30 µg/disc (Shigella boydii [16]): 14 mm
- zone of inhibition at 30 µg/disc (Staphylococcus aureus [17]): 30 mm
- zone of inhibition at 30 µg/disc (Salmonella typhimurium [18]): 19 mm

Reference: ChEMBL document CHEMBL3046942, “Synthesis and biological activity of new cycloalkylthiophene-Schiff bases and their Cr(III) and Zn(II) complexes” (2010)
